Assay results as given in patent publication US20110044936A1, “Composition for Attracting Bed Bugs” (priority 2009, published 2011).

Legend:
Type in all cases: in vivo
[1] = test system: bed bugs (Cimex lectularius); experiment: Test arena gas assay, compounds dissolved in nonane (Example 5); conditions: for % Bed bugs in Experimental Zone: after two hour exposure, released from nonane solution at 150.0-184.8 nanograms/hour @ 100 mL/min air flow, test gas 21-22 °C, control gas compressed air; for Attraction of bed bugs to gaseous mixture: test arena, two hour exposure, versus control gas
Source text: A test arena was constructed from a 60×40×22 cm (L:W:H) polystyrene container. A 60×40 cm piece of filter paper was glued on the bottom to provide a walking surface for the bed bugs. At one end of the test arena, a triangular piece of plastic (16 cm high×25 cm long) was glued to the middle of the side and bottom of the container to create test zones of equal area on either side of the partition. On each side of this partition a piece of Tygon® tubing was inserted through a hole 7 cm above the bottom of each test zone to deliver a control gas to one side of the partition (control zone) and the experimental gas to the other side of the partition (experimental zone). The tubing was positioned to deliver the gases downward into the test zones with each outlet 6 cm above the filter paper glued to the bottom of the container. At the other end of the test arena, a 4 W night light was placed 35 cm above the bottom of the arena and regulated to a 12 hour light:12 hour dark (7 AM On: 7 PM Off) light cycle. Also placed adjacent to the night light was a small fan (Boston, cat#EHSDF) to create a gentle removal of gases from the distal part of the arena. Air released by the experimental and control gases was contained within their partitions and were gently drawn away from the respective air inputs, mixed within the arena and removed by the fan. This created a laminar flow where the bed bugs had opportunity to select either the experimental or control gas. Fifty bed bugs (Cimex lectularius) were entrapped within an inverted 90 mm Petri dish at a position furthest from the control and experimental zones until bed bugs were quiescent. Removal of the Petri dish started the experiment and readings were taken every hour for two hours. Data collected were number of bed bugs in the experimental, control and free arena zones. In addition, gas temperature, relative humidity, air flow rate, and percent CO2 data were collected. The experimental gas was considered to be an attractant if more bed bugs were in the experimental zone than in the control zone.
Determination of Bed Bug Aggregation Effect Using Hexenal, Butyric Acid, trans-2-Hexen-1-al Diethylacetal, Trimethylsilyl Butyrate or Methyl Butyrate Dissolved in an Alkane Solvent Using the test arena and methods described in Example 4, test treatments containing about 300 ppm of a pro-aldehyde compound, trans-2-hexen-1-al diethylacetal, dissolved in nonane, about 300 ppm of Hexenal dissolved in nonane, about 200 ppm of butyric acid dissolved in nonane and about 200 ppm of a pro-organic acid compound, trimethylsilyl butyrate or methyl butyrate, dissolved in nonane were prepared. Separate 100 micro liter pipettes (Drummond Wiretrol 100 μL) were filled with the test solutions. One end of each micro liter pipette was sealed with parafilm leaving one end of each open. […] An air tight lid was placed onto the plastic container and the container was installed in-line after humidity and temperature conditioning of the gas and before the gas entered the arena. The micro liter pipettes were weighed before and after use to determine the amount of the test compounds released. The control gas used for these experiments consisted of house compressed air.

[2] = test system: bed bugs (Cimex lectularius); experiment: Bed bug aggregation (attraction) assay, Petri dish arena with treated and control filter paper tents (Example 1)
Description: Attraction Assays: Assay arenas were made from 150×15 mm plastic Petri dishes (VWR#25384-326) containing a 125 mm piece off qualitative filter paper (VWR#28320-100) glued to the bottom using 3M Super 77® multipurpose spray adhesive. A 80 mm hole was cut into the lid and a 500 um mesh Nytex® screen (Bioquip, #7293B) was glued to cover the opening using quick epoxy. Fresh bottom dishes were used in each assay. For these experiments 2.4 cm filter paper folded to create a tent were treated with either a control treatment (10 microliters of silicone oil for aldehyde controls and 5 microliters of deionized water for acid controls) or 10 microliters of the experimental test treatment diluted in silicone oil (aldehydes) or 5 microliters of the experimental chemical diluted in deionized water (acids). Ten bed bugs per test were released into the assay arena for the aldehyde test treatments and controls, five bed bugs per test were released into the assay arena for the acid test treatments. Day cycling bed bugs (Cimex lectularius), 12 hour light: 12 hour dark (7 AM On: 7 PM Off) light cycle, were incubated and evaluated under normal room lighting conditions at room temperature. Readings were taken at 1 hour intervals from the release of bed bugs for 4 hours for aldehydes and one hour for acids, due to the quick volatility of the acids. The number of bed bugs under the control filter paper disk and the number of bed bugs under the test treatment filter paper disk were recorded. The test treatment was considered to be an attractant if the number of bed bugs under the experimental filter disk was greater than the number under the control filter disk. Table 1 below summarizes the experimental data, the experimental test treatments considered as attractants are in bold.

[3] = test system: bed bugs (Cimex lectularius); experiment: Bed bug aggregation assay, mixtures of Hexenal and Octenal (Example 2); conditions: about 30 ppm in silicone oil; for Number of bed bugs under experimental (Exp) disk: 5 microliters, ten bed bugs, average of two tests
Description: Attraction Assays: […] For this experiment, mixtures of Hexenal and Octenal were diluted in silicone oil at the following ratios: 100:0; 75:25; 50:50; 25:75; and 0:100. […] Readings were taken hourly for four hours from the release of bed bugs in the assay arena. The number of bed bugs under the control disk and the number of bed bugs under the experimental disk were recorded. The test treatment was considered to be an attractant if the number of bed bugs under the experimental filter disk was greater than the number under the control disk. Table 2 below summarizes the experimental data, the experimental test treatments considered as attractants are in bold.

[4] = organic acid 10 ppm in deionized water, 5 microliters, one hour, five bed bugs, average of two tests
[5] = organic acid 50 ppm in deionized water, 5 microliters, one hour, five bed bugs, average of two tests
[6] = organic acid 100 ppm in deionized water, 5 microliters, one hour, five bed bugs, average of two tests
[7] = organic acid 1000 ppm in deionized water, 5 microliters, one hour, five bed bugs, average of two tests
[8] = 1 ppm in silicone oil, 10 microliters, 1 Hour, ten bed bugs, average of two tests
[9] = 1 ppm in silicone oil, 10 microliters, 2 Hour, ten bed bugs, average of two tests
[10] = 1 ppm in silicone oil, 10 microliters, 3 Hour, ten bed bugs, average of two tests
[11] = 1 ppm in silicone oil, 10 microliters, 4 Hour, ten bed bugs, average of two tests
[12] = 10 ppm in silicone oil, 10 microliters, 1 Hour, ten bed bugs, average of two tests
[13] = 10 ppm in silicone oil, 10 microliters, 2 Hour, ten bed bugs, average of two tests
[14] = 10 ppm in silicone oil, 10 microliters, 3 Hour, ten bed bugs, average of two tests
[15] = 10 ppm in silicone oil, 10 microliters, 4 Hour, ten bed bugs, average of two tests
[16] = 100 ppm in silicone oil, 10 microliters, 1 Hour, ten bed bugs, average of two tests
[17] = 100 ppm in silicone oil, 10 microliters, 2 Hour, ten bed bugs, average of two tests
[18] = 100 ppm in silicone oil, 10 microliters, 3 Hour, ten bed bugs, average of two tests
[19] = 100 ppm in silicone oil, 10 microliters, 4 Hour, ten bed bugs, average of two tests
[20] = 1000 ppm in silicone oil, 10 microliters, 1 Hour, ten bed bugs, average of two tests
[21] = 1000 ppm in silicone oil, 10 microliters, 2 Hour, ten bed bugs, average of two tests
[22] = 1000 ppm in silicone oil, 10 microliters, 3 Hour, ten bed bugs, average of two tests
[23] = 1000 ppm in silicone oil, 10 microliters, 4 Hour, ten bed bugs, average of two tests
[24] = 10000 ppm in silicone oil, 10 microliters, 1 Hour, ten bed bugs, one test
[25] = 10000 ppm in silicone oil, 10 microliters, 2 Hour, ten bed bugs, one test
[26] = 10000 ppm in silicone oil, 10 microliters, 3 Hour, ten bed bugs, one test
[27] = 10000 ppm in silicone oil, 10 microliters, 4 Hour, ten bed bugs, one test
[28] = at a high concentration of about 10,000 ppm

## CCCC(=O)OC [methyl butyrate]
[1]
  % Bed bugs in Experimental Zone: 34.0%
  Attraction of bed bugs to gaseous mixture: attracted

## CC(=O)O [Acetic acid, reference compound]
[2]; [4]
  Number of bed bugs under experimental (Exp) filter paper disk: 0
[2]; [5]
  Number of bed bugs under experimental (Exp) filter paper disk: 1
[2]; [6]
  Number of bed bugs under experimental (Exp) filter paper disk: 1
[2]; [7]
  Number of bed bugs under experimental (Exp) filter paper disk: 3
[2]; organic acid 10000 ppm in deionized water, 5 microliters, one hour, five bed bugs, average of two tests
  Number of bed bugs under experimental (Exp) filter paper disk: 3

## CCC/C=C/C=O [Hexenal, trans-2-hexen-1-al]
[2]; [8]
  Number of bed bugs under experimental (Exp) filter paper disk: 4
[2]; [9]
  Number of bed bugs under experimental (Exp) filter paper disk: 6
[2]; [10]
  Number of bed bugs under experimental (Exp) filter paper disk: 6.5
[2]; [11]
  Number of bed bugs under experimental (Exp) filter paper disk: 6
[2]; [12]
  Number of bed bugs under experimental (Exp) filter paper disk: 3
[2]; [13]
  Number of bed bugs under experimental (Exp) filter paper disk: 3.5
[2]; [14]
  Number of bed bugs under experimental (Exp) filter paper disk: 4
[2]; [15]
  Number of bed bugs under experimental (Exp) filter paper disk: 5.5
[2]; [16]
  Number of bed bugs under experimental (Exp) filter paper disk: 6.5
[2]; [17]
  Number of bed bugs under experimental (Exp) filter paper disk: 8
[2]; [18]
  Number of bed bugs under experimental (Exp) filter paper disk: 9
[2]; [19]
  Number of bed bugs under experimental (Exp) filter paper disk: 8.5
[2]; [20]
  Number of bed bugs under experimental (Exp) filter paper disk: 6
[2]; [21]
  Number of bed bugs under experimental (Exp) filter paper disk: 7
[2]; [22]
  Number of bed bugs under experimental (Exp) filter paper disk: 9
[2]; [23]
  Number of bed bugs under experimental (Exp) filter paper disk: 9
[2]; [24]
  Number of bed bugs under experimental (Exp) filter paper disk: 0
[2]; [25]
  Number of bed bugs under experimental (Exp) filter paper disk: 1
[2]; [26]
  Number of bed bugs under experimental (Exp) filter paper disk: 1
[2]; [27]
  Number of bed bugs under experimental (Exp) filter paper disk: 1
[2]; [28]
  Attractiveness to bed bugs: much less attractive
[3]; 1 Hour
  Number of bed bugs under experimental (Exp) disk: 3
[3]; 2 Hour
  Number of bed bugs under experimental (Exp) disk: 3
[3]; 3 Hour
  Number of bed bugs under experimental (Exp) disk: 4.5
[3]; 4 Hours
  Number of bed bugs under experimental (Exp) disk: 5
[1]
  % Bed bugs in Experimental Zone: 38.0%
  Attraction of bed bugs to gaseous mixture: attracted

## O=CO [Formic acid, reference compound]
[2]; [4]
  Number of bed bugs under experimental (Exp) filter paper disk: 0
[2]; [5]
  Number of bed bugs under experimental (Exp) filter paper disk: 1
[2]; [6]
  Number of bed bugs under experimental (Exp) filter paper disk: 1
[2]; [7]
  Number of bed bugs under experimental (Exp) filter paper disk: 3

## CCCCC=O [Valeraldehyde, reference compound]
[2]; 10 milligrams delivered in 10 microliters methanol solution, one experimental disk versus 6 methanol control disks, 1 Hour, average of two tests
  Number of bed bugs under experimental (Exp) filter paper disk: 0.1
[2]; saturated aldehyde, 10 milligrams on disk, one hour
  Attractiveness to bed bugs: not attractive

## CCCC(=O)O[Si](C)(C)C [Trimethylsilyl butyrate, trimethylsilyl butyrate]
[1]
  % Bed bugs in Experimental Zone: 9%
  Attraction of bed bugs to gaseous mixture: attracted

## CCC/C=C/C(OCC)OCC [trans-2-hexen-1-al diethylacetal]
[1]
  % Bed bugs in Experimental Zone: 28.0%
  Attraction of bed bugs to gaseous mixture: attracted

## CCCCC/C=C/C=O [Octenal, trans-2-octen-1-al]
[2]; [8]
  Number of bed bugs under experimental (Exp) filter paper disk: 1
[2]; [9]
  Number of bed bugs under experimental (Exp) filter paper disk: 2
[2]; [10]
  Number of bed bugs under experimental (Exp) filter paper disk: 3.5
[2]; [11]
  Number of bed bugs under experimental (Exp) filter paper disk: 5
[2]; [12]
  Number of bed bugs under experimental (Exp) filter paper disk: 2
[2]; [13]
  Number of bed bugs under experimental (Exp) filter paper disk: 4
[2]; [14]
  Number of bed bugs under experimental (Exp) filter paper disk: 4.5
[2]; [15]
  Number of bed bugs under experimental (Exp) filter paper disk: 4
[2]; [16]
  Number of bed bugs under experimental (Exp) filter paper disk: 5
[2]; [17]
  Number of bed bugs under experimental (Exp) filter paper disk: 6.5
[2]; [18]
  Number of bed bugs under experimental (Exp) filter paper disk: 7
[2]; [19]
  Number of bed bugs under experimental (Exp) filter paper disk: 6.5
[2]; [20]
  Number of bed bugs under experimental (Exp) filter paper disk: 5
[2]; [21]
  Number of bed bugs under experimental (Exp) filter paper disk: 4.5
[2]; [22]
  Number of bed bugs under experimental (Exp) filter paper disk: 5
[2]; [23]
  Number of bed bugs under experimental (Exp) filter paper disk: 5
[2]; [24]
  Number of bed bugs under experimental (Exp) filter paper disk: 2
[2]; [25]
  Number of bed bugs under experimental (Exp) filter paper disk: 2
[2]; [26]
  Number of bed bugs under experimental (Exp) filter paper disk: 2
[2]; [27]
  Number of bed bugs under experimental (Exp) filter paper disk: 4
[2]; [28]
  Attractiveness to bed bugs: much less attractive
[2]; at concentrations below about 100 ppm
  Attractiveness to bed bugs: less attractive
[3]; 1 Hour
  Number of bed bugs under experimental (Exp) disk: 7.5
[3]; 2 Hour
  Number of bed bugs under experimental (Exp) disk: 7.5
[3]; 3 Hour
  Number of bed bugs under experimental (Exp) disk: 9
[3]; 4 Hours
  Number of bed bugs under experimental (Exp) disk: 8.5
[3]; compared among H:O ratios
  Attraction of bed bugs to experimental filter disks: most bed bugs were attracted
